Source: ChEMBL document CHEMBL3853272, “Polymerase Acidic Protein-Basic Protein 1 (PA-PB1) Protein-Protein Interaction as a Target for Next-Generation Anti-influenza Therapeutics” (J Med Chem, 2016)

Experiments:
[1] = (§1) Inhibition of Influenza A virus A/PR/8/34 RNA-dependent-RNA polymerase transfected in HEK293T cells assessed as reduction in viral growth after 24 hrs by minireplicon assay; type: cell-based, Influenza A virus (A/Puerto Rico/8/1934(H1N1)); settings: hek-293t
HEK-293T = assay: as §1; type: cell-based; settings: Influenza A virus (A/Puerto Rico/8/1934(H1N1))
[2] = Antiviral activity against Influenza A virus A/PR/8/34 (H1N1) infected in MDCK cells assessed as reduction in plaque formation after 2 days by plaque reduction assay; type: functional, cell-based, Influenza A virus (A/Puerto Rico/8/1934(H1N1)); settings: 48 h
[3] = (§2) Inhibition of Influenza A virus A/PR/8/34(H1N1) 6His-tagged PA (239 to 716 residues)/GST-tagged PB1 (1 to 15 residues) fused with HIV-Tat interaction by ELISA; design: species or system Influenza A virus (A/Puerto Rico/8/1934(H1N1))
[4] = system: Influenza A virus (A/Puerto Rico/8/1934(H1N1)); assay: as §2
[5] = Cytotoxicity against MDCK cells measured after 24 to 120 hrs by MTT assay; type: toxicity, cell-based, Canis lupus familiaris; settings: dog
[6] = molecular target: Polymerase acidic protein /RNA-directed RNA polymerase catalytic subunit (Influenza A virus (strain A/Wilson-Smith/1933 H1N1), UniProt P03430+P15659); assay: Inhibition of Influenza A virus A/WSN/1933(H1N1) HA-tagged PA/PB1 interaction in HEK293T cells assessed as inhibition of viral growth by competitive ELISA; type: cell-based, HEK-293T
[7] = Inhibition of Influenza B virus HA-tagged PA/PB1 interaction in HEK293T cells assessed as inhibition of viral growth by competitive ELISA; type: cell-based; settings: hek-293t
[8] = Cytotoxicity against MDCK cells by MTT assay; type: toxicity, cell-based, Canis lupus familiaris; settings: dog
[9] = molecular target: Polymerase acidic protein (Influenza A virus (A/Puerto Rico/8/1934(H1N1)), UniProt P03433); assay: Binding affinity to PA cavity of recombinant Influenza A virus A/PR/8/34(H1N1) PA (239 to 716 residues) measured after 2 mins by SPR analysis
Influenza A virus = assay: Antiviral activity at Influenza A virus infected in MDCK cells by plaque reduction assay; type: functional, cell-based
Influenza B virus = assay: Antiviral activity at Influenza B virus infected in MDCK cells by plaque reduction assay; type: functional, cell-based
[10] = Inhibition of Influenza A virus A/WSN/1933(H1N1) PA/PB1 interaction transfected in HEK293T cells assessed as inhibition of viral growth measured after 24 hrs by minireplicon assay; type: cell-based; settings: hek-293t
[11] = Inhibition of Influenza A virus A/PR/8/34(H1N1) RNA-dependent-RNA polymerase transfected in MDCK cells assessed as reduction in viral growth after 24 hrs by minireplicon assay; type: cell-based, Influenza A virus (A/Puerto Rico/8/1934(H1N1))
[12] = Inhibition of Influenza A virus A/PR/8/34(H1N1) 6His-tagged PA (239 to 716 residues)/GST-tagged PB1 (1 to 15 residues) interaction; design: species or system Influenza A virus (A/Puerto Rico/8/1934(H1N1))
[13] = Inhibition of Influenza B virus B/Lee/40 RNA-dependent-RNA polymerase transfected in MDCK cells assessed as reduction in viral growth after 24 hrs by minireplicon assay; type: cell-based, Influenza B virus (B/Lee/1940)

For `NC(=O)c1c(NC(=O)c2cnn3c(C(F)F)cc(-c4ccccc4)nc23)sc2c1CCC2`, the IC50 [1] was 31 µM, the inhibition (HEK-293T) was “Dose-dependent effect” and the EC50 [2] was 75 µM. For the same compound, the IC50 [3] was 25.4 µM, the inhibition [4] was “Dose-dependent effect” and the CC50 [5] was > 1000 µM.
In the case of H-MNINPYFLFIDVPIQ-OH, the IC50 [6] is reported as > 3 µM and the IC50 [7] is reported as 0.045 µM.
With `O=[N+]([O-])c1ccc(Sc2cccc(-n3ccnc3)c2)c2nonc12` the EC50 [2] was 10 µM, the IC50 [3] was 15 µM and the CC50 [8] was 20 µM.
`CC[C@H](C)[C@H](NC(=O)[C@@H]1CCCN1C(=O)[C@@H](NC(=O)[C@H](CCCCN)NC(=O)[C@H](CC(C)C)NC(=O)[C@H](Cc1ccccc1)NC(=O)[C@H](CC(C)C)NC(=O)[C@H](CC(C)C)NC(=O)[C@H](Cc1ccccc1)NC(=O)[C@@H]1CCCN1C(=O)[C@H](CC(N)=O)NC(=O)[C@@H](NC(=O)[C@H](CC(=O)O)NC(=O)[C@@H](N)CCSC)C(C)C)C(C)C)C(=O)N[C@@H](CCC(N)=O)C(=O)O` showed an IC50 [6] of 0.0217 µM.
Compound `N#CC(c1ccc(Cl)cc1)c1c(Cl)cc(-n2ncc(=O)[nH]c2=O)cc1Cl` (centres undefined) [DICLAZURIL] has an EC50 [2] of 31 µM and a Kd [9] of 211 µM.
With `CCc1oc2ccccc2c1C(=O)c1cc(Br)c(O)c(Br)c1` [BENZBROMARONE] the EC50 [2] was 39 µM and the Kd [9] was 48.2 µM.
For `COC(=O)C1=C(N)N(c2cccc(Cl)c2C)C2=C(C(=O)CCC2)C1c1ccc2c(c1)OCO2` (centres undefined), the EC50 (Influenza A virus) was 12 µM, the IC50 [1] was 18 µM and the inhibition (HEK-293T) was “Dose-dependent effect”. The EC50 [2] was 18.6 µM, the EC50 (Influenza B virus) was 12 µM and the IC50 [3] was 30.4 µM. For the same compound, the inhibition [4] was “Dose-dependent effect” and the CC50 [5] was > 1000 µM.
`Nc1ccc(O)c2c1C(=O)c1c(N)ccc(O)c1C2=O` showed an EC50 (Influenza A virus) of 13 µM, an IC50 [10] of 16 µM and an EC50 [11] of 14 µM. For the same compound, the IC50 [12] was 20 µM, the CC50 [5] was > 250 µM and the EC50 [13] was 8.3 µM.
For `CSCC[C@H](N)C(=O)N[C@@H](CC(=O)O)C(=O)N[C@H](C(=O)N[C@@H](CC(N)=O)C(=O)N1CCC[C@H]1C(=O)N[C@H](C(=O)N[C@@H](CC(C)C)C(=O)N[C@@H](CC(C)C)C(=O)N[C@@H](Cc1ccccc1)C(=O)N[C@@H](CC(C)C)C(=O)N[C@@H](CCCCN)C(=O)N[C@H](C(=O)N1CCC[C@H]1C(=O)N[C@@H](C)C(=O)N[C@@H](CCC(N)=O)C(=O)O)C(C)C)[C@@H](C)O)C(C)C`, the IC50 [7] was > 3 µM.
Work on H-MDVNPYLLFLKVPAQ-OH yielded an IC50 [6] of 0.0216 µM and an IC50 [7] of 0.107 µM.
`CSCC[C@H](N)C(=O)N[C@@H](CC(=O)O)C(=O)N[C@@H](Cc1ccc(O)cc1)C(=O)N[C@@H](CC(N)=O)C(=O)N1CCC[C@H]1C(=O)N[C@@H](Cc1ccccc1)C(=O)N[C@@H](CC(C)C)C(=O)N[C@@H](CC(C)C)C(=O)N[C@@H](Cc1ccccc1)C(=O)N[C@@H](CC(C)C)C(=O)N[C@@H](CCCCN)C(=O)N[C@H](C(=O)N1CCC[C@H]1C(=O)N[C@@H](C)C(=O)N[C@@H](CCC(N)=O)C(=O)O)C(C)C` gave an IC50 [6] of 0.0063 µM.
In the case of `COc1ccc(CC2(CCC(=O)NC(C)Cn3ccc4ccccc43)CCC(=O)N2)cc1` (centres undefined), the IC50 [1] is reported as > 100 µM, the inhibition (HEK-293T) is reported as “Dose-dependent effect” and the EC50 [2] is reported as > 100 µM. The IC50 [3] was 200 µM, the inhibition [4] was “Dose-dependent effect” and the CC50 [5] was > 250 µM.
`O=[N+]([O-])c1ccc(Oc2ccc(-n3cc(CO)nn3)cc2)c2nonc12` gave an EC50 [2] of 1 µM, an IC50 [3] of 35 µM and a CC50 [8] of 40 µM.
For `CC(C)C[C@H](NC(=O)[C@H](Cc1ccccc1)NC(=O)[C@H](CC(C)C)NC(=O)[C@H](CC(C)C)NC(=O)[C@@H](NC(=O)[C@@H]1CCCN1)[C@@H](C)O)C(=O)N[C@@H](CCCCN)C(=O)O`, the IC50 [6] was > 10 µM.
With `CSCC[C@H](N)C(=O)N[C@@H](CC(=O)O)C(=O)N[C@H](C(=O)N[C@@H](CC(N)=O)C(=O)N1CCC[C@H]1C(=O)N[C@@H](Cc1ccccc1)C(=O)N[C@@H](CC(C)C)C(=O)N[C@@H](CC(C)C)C(=O)N[C@@H](Cc1ccccc1)C(=O)N[C@@H](CC(C)C)C(=O)N[C@@H](CCCCN)C(=O)N[C@H](C(=O)N[C@@H](CCCCN)C(=O)N[C@@H](C)C(=O)N[C@@H](CCC(N)=O)C(=O)O)C(C)C)C(C)C` the IC50 [6] was 0.0166 µM.
With `COc1ccc(C(=O)Nc2nc3n(n2)C(c2ccccc2)C=C(C)N3)cc1` (centres undefined) the IC50 [1] was > 100 µM, the inhibition (HEK-293T) was “Dose-dependent effect” and the EC50 [2] was > 100 µM. The IC50 [3] was 171 µM, the inhibition [4] was “Dose-dependent effect” and the CC50 [5] was > 250 µM.
Compound `CC(=O)O[C@H]1CC[C@H]2[C@@H]3CCC4=CC(=O)CCC4=C3C=C[C@]12C` [TRENBOLONE ACETATE] has an EC50 [2] of 51 µM and a Kd [9] of 90.7 µM.
For `CSCC[C@H](N)C(=O)N[C@@H](CC(=O)O)C(=O)N[C@H](C(=O)N[C@@H](CC(N)=O)C(=O)N1CCC[C@H]1C(=O)N[C@@H](Cc1ccccc1)C(=O)N[C@@H](CC(C)C)C(=O)N[C@@H](CC(C)C)C(=O)N[C@@H](Cc1ccccc1)C(=O)N[C@@H](CC(C)C)C(=O)N[C@@H](CCCCN)C(=O)N[C@H](C(=O)N1CCC[C@H]1C(=O)N[C@@H](C)C(=O)N[C@@H](Cc1ccccc1)C(=O)O)C(C)C)C(C)C`, the IC50 [6] was 0.0139 µM.
